The record followed here is publication PMC6360668, “Discovery and evaluation of ZT55, a novel highly-selective tyrosine kinase inhibitor of JAK2^V617F against myeloproliferative neoplasms” (Journal of Experimental & Clinical Cancer Research : CR, 2019).

The target in the assay is JAK2 (Homo sapiens, UniProt O60674). In words: HTRF KinEASE cell-free kinase assay with recombinant human JAK2. The format is biochemical. (In TR-FRET formats the signal depends on donor and acceptor labels being close together.)
JAK2, sequence (O60674 whole entry): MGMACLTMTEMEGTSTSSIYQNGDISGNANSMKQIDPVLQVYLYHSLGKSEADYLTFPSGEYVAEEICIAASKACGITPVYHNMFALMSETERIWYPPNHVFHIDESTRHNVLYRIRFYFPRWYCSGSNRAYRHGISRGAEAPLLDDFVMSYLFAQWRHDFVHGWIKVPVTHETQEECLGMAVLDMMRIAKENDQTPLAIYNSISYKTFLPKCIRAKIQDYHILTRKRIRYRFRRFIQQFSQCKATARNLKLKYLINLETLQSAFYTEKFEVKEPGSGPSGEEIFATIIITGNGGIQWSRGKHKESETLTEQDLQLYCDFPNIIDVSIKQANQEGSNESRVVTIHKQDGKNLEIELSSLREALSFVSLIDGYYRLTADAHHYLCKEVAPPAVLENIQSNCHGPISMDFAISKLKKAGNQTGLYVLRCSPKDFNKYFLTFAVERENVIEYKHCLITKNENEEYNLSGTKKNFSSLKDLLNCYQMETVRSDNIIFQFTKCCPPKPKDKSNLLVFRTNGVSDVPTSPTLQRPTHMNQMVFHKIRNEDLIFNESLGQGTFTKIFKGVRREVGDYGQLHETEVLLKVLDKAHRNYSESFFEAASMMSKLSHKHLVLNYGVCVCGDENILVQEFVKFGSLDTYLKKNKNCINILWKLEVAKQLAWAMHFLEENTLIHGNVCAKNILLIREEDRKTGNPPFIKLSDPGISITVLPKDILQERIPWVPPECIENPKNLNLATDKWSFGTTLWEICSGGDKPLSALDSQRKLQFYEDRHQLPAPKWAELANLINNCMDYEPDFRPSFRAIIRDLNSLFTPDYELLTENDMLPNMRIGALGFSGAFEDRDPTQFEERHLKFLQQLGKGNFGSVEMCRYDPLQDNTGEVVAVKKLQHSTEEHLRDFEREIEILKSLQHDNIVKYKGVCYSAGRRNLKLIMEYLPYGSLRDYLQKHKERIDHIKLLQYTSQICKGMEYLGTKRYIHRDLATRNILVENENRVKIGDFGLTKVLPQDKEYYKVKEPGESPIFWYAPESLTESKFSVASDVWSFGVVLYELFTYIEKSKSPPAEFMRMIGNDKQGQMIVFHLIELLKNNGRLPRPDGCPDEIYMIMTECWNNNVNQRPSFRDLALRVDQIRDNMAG

By IC50 is commonly meant the concentration that gives 50% inhibition. As to `COc1ccccc1NC(=O)Cc1cn(O)c2ccccc12` [ZT55], the IC50 came out at 31 nM.
